Data on six compounds can be found in paper PMC7051184, “C9orf72 arginine-rich dipeptide repeat proteins disrupt karyopherin-mediated nuclear import” (eLife, 2020).

In assay [1] the test system is proteasome. Particulars: ref Gupta et al., 2017; cited from earlier work. From the text:
Throughout this study, we observed marked differences in the behavior of GR and PR. […] Based on their divergent molecular properties, the differing behavior of GR and PR is not surprising. On one hand, bot ...

Assay [2] deals with nuclear import of NLS-BSA. To be noted: permeabilized HeLa cells; ref Shi et al., 2017; cited from earlier work. An excerpt:
(§1) Additional studies have since investigated mechanisms by which individual DPRs may disrupt the nuclear transport apparatus. […] PR20 was previously shown by STE ...

The subject of assay [3] is nuclear transport of NLS-NES shuttle proteins. To be noted: synthetic peptide added to HeLa cells in the culture media; ref Vanneste et al., 2019; cited from earlier work.
Text: as §1

Assay [4] has as its system Nup54 and 98 FG-domain polymers. Particulars: ref Shi et al., 2017; cited from earlier work. An excerpt: The rate of passive transport through the NPC is governed by the FG-Nup barrier ([Mohr et al., 2009]; [Timney et al., 2016]; [Frey et al., 2018]), in addition to local concentrations of importin β and RanGTP ([Ma et al., 2012]; [Kapinos et al., 2017]). R-DPR/FG-domain interactions are predicted based on the propensity of arginines to undergo cation-pi interactions with aromatic phenylalanine rings (reviewed by [Gallivan and Dougherty, 1999]; [Banani et al., 2017]). Indeed, previous interactome studies predicted R-DPR interactions with FG-Nups including Nup54, 62, 98, 153, and 214 ([Lin et al., ...

Assay [5] has as its target T1, importin β-mediated nuclear import of Rango (Homo sapiens, UniProt Q14974). The assay can be described thus: Fractionated Rango transport assay (aggregates present or supernatant only), HeLa. It counts as cell-based. Particulars: with AF647-labeled importin β. On the procedure:
A single cell-derived clone of HeLa cells (ATCC, Manassas, VA; mycoplasma negative and validated by STR profiling) were maintained in OptiMEM (Gibco/ThermoFisher) with 4% FBS and plated on uncoated optical glass-bottom 96 well plates, at appropriate densities to reach 70–90% confluence on the day of the transport assay. To permeabilize, cells were rinsed for 2 min in ice-cold PBS, and permeabilized on ice for 10 min in 15–30 µg/mL digitonin (Calbiochem, San Diego, CA) in permeabilization buffer (PRB, 20 mM HEPES, 110 mM KOAc, 5 mM Mg(OAc)2, 0.5 mM EGTA, 250 mM sucrose, pH 7.5, with protease inhibitor cocktail). Following permeabilization, cells were placed on ice and rinsed 3 × 5 min in transport buffer (TRB, 20 mM HEPES, 110 mM KOAc, 2 mM Mg(OAc)2, 5 mM NaOAc, 0.5 mM EGTA, 250 mM sucrose, pH 7.3, with protease inhibitor cocktail). The optimal digitonin concentration varied by cell density and passage number, and was optimized prior to each set of assays for the ability to permeabilize the majority of plasma membranes while maintaining nuclear exclusion of a 70 kD fluorescent dextran (ThermoFisher).
(§2) Reaction mixes consisting of 2.5 mg/ml lysate, ER, fluorescent cargo (200 nM Rango and YFP-M9-CFP, 500 nM GST-GFP-NLS), Hoechst, DPRs, RNA, or inhibitors (100 µM importazole (IPZ, Millipore Sigma); 0.8 mg/mL wheat germ agglutinin (WGA, Millipore Sigma) were assembled on ice during cell permeabilization. DPRs or inhibitors were allowed to equilibrate in cell lysate for at least 30 min prior to initiation of transport. Every plate included: (1) Cargo alone: fluorescent cargo, but no ER or lysate, (2) Untreated controls: fluorescent cargo, ER, and lysate, and (3) Inhibitor: fluorescent cargo, ER, lysate, and IPZ (Rango and GST-GFP-NLS reactions) or WGA (YFP-M9-CFP). Preassembled transport reactions were then transferred onto permeabilized cells via multichannel pipette, and allowed to proceed at room temperature for 2 hr (Rango, YFP-M9-CFP) or 4 hr (GST-GFP-NLS). Cells were fixed in 4% paraformaldehyde/PBS, rinsed 2x with PBS, and transferred to 50% glycerol/PBS for immediate imaging.
For a subset of neuron transport assays, transport was monitored live via time lapse imaging every 5 min for 30 min. […]
Multiple non-overlapping fields per well (4 for time-lapse imaging, 9-16 for fixed imaging), were captured at 40x on an ImageXpress Micro XLS high-content microscope (Molecular Devices, San Jose, CA), and the ratio of nuclear to cytoplasmic fluorescence intensity was calculated using the MetaXpress automated translocation-enhanced module. […] Resulting N/C ratios were expressed as % untreated, to permit comparisons across biological replicates.

Assay [6] concerns the target T1, importin β-mediated nuclear import of Rango. The assay can be described thus: Permeabilized cell nuclear import assay, Rango, HeLa. Type of assay: cell-based.
The target is the same in assay [7]. Nature of the assay: Permeabilized cell nuclear import assay, Rango, mouse primary cortical neurons. To be noted: importin β small molecule inhibitor control. Type of assay: cell-based.
Text: All animal procedures were approved by the Johns Hopkins Animal Care and Use Committee. Timed pregnant C57BL/6J females (Jackson Laboratory, Bar Harbor, ME) were sacrificed by cervical dislocation at E16, cortex dissociated, and cells plated at 50,000/well on poly-D-lysine/laminin-coated, optical glass-bottom 96-well plates. Growth medium consisted of Neurobasal supplemented with B27, Glutamax, and penicillin/streptomycin (Gibco/ThermoFisher). At 5–7 days in vitro, neurons were rinsed in prewarmed PBS and permeabilized for 4 min. at 37° in a hypotonic solution containing […] Tris-HCl pH 7.5 (to cause osmotic swelling) and 50–150 mg/ml BSA (for molecular crowding/mechanical support). Following permeabilization, cells were placed on ice and rinsed 2 × 5 min in transport buffer (TRB, 20 mM HEPES, 110 mM KOAc, 2 mM Mg(OAc)2, 5 mM NaOAc, 0.5 mM EGTA, 250 mM sucrose, pH 7.3, with protease inhibitor cocktail). All rinse and assay buffers were supplemented with 50 mg/mL BSA. The optimal hypotonic buffer and BSA concentration varied by batch, and was optimized prior to each set of assays for ability to permeabilize the majority of plasma membranes while maintaining nuclear exclusion of a 70 kD fluorescent dextran (ThermoFisher).
Concentrated whole cell lysates were prepared from HEK293T cells (ATCC, mycoplasma negative and validated by STR profiling), grown in 150 mm dishes and sonicated on ice in 1X TRB in the presence of protease inhibitor cocktail (Roche). The lysates were clarified (15 min, 14000 g, 4C), snap frozen in liquid nitrogen, and stored in single use aliquots at −80C. Total HEK cell RNA was extracted using miRNEasy kits according to the manufacturers’ protocol, with DNase digestion (Qiagen). RNA concentration was measured by Nanodrop (ThermoFisher), and all 260/280 ratios were verified to be > 2.0. Energy regeneration (ER) mix consisted of 100 µM ATP, 100 µM GTP, 4 mM creatine phosphate, and 20 U/mL creatine kinase (Roche).
as §2
For a subset of neuron transport assays, transport was monitored live via time lapse imaging every 5 min for 30 min. In a subset of HeLa assays, transport reactions were centrifuged before use at 14,000g × 15 min to separate soluble and insoluble fractions. In another variation, the transport lysate + DPR and ER mix was allowed to preincubate on the permeabilized HeLa cells for 1 hour prior to initiation of transport, rinsed 1x with TRB, and transport initiated with fresh lysate, cargo, and ER.
Multiple non-overlapping fields per well (4 for time-lapse imaging, 9-16 for fixed imaging), were captured at 40x on an ImageXpress Micro XLS high-content microscope (Molecular Devices, San Jose, CA), and the ratio of nuclear to cytoplasmic fluorescence intensity was calculated using the MetaXpress automated translocation-enhanced module. Raw data were filtered to exclude autofluorescence and the mean N/C ratio from wells without ER or cell lysate was subtracted from all values.

Where a SMILES comes first, the peptide text is derived from it. Where no end group is shown, it is not given here.

T1 sequence (Q14974 whole entry): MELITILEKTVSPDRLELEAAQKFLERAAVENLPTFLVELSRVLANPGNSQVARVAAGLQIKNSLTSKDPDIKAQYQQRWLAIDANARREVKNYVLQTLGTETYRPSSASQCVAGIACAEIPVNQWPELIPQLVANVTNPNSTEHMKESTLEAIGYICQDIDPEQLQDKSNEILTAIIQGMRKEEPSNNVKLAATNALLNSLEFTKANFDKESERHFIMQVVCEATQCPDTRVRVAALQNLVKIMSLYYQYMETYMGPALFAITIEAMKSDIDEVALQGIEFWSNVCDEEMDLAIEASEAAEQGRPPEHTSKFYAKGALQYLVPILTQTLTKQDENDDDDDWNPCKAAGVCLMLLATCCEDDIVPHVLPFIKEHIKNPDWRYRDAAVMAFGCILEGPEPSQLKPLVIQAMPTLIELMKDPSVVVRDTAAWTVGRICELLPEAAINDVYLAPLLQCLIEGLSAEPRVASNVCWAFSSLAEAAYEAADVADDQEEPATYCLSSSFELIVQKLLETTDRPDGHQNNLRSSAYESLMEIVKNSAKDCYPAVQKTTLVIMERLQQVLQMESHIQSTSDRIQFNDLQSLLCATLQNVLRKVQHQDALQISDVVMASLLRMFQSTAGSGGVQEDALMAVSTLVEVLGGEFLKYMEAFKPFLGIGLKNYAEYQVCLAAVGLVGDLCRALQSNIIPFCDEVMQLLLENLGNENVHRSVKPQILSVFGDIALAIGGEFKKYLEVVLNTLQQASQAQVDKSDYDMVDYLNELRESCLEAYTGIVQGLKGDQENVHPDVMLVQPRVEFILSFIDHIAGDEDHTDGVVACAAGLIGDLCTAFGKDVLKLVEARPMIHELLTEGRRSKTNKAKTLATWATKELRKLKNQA

As to `N=C(N)NCCC[C@H](NC(=O)[C@@H]1CCCN1C(=O)[C@H](CCCNC(=N)N)NC(=O)[C@@H]1CCCN1C(=O)[C@H](CCCNC(=N)N)NC(=O)[C@@H]1CCCN1C(=O)[C@H](CCCNC(=N)N)NC(=O)[C@@H]1CCCN1C(=O)[C@H](CCCNC(=N)N)NC(=O)[C@@H]1CCCN1C(=O)[C@H](CCCNC(=N)N)NC(=O)[C@@H]1CCCN1C(=O)[C@H](CCCNC(=N)N)NC(=O)[C@@H]1CCCN1C(=O)[C@H](CCCNC(=N)N)NC(=O)[C@@H]1CCCN1C(=O)[C@H](CCCNC(=N)N)NC(=O)[C@@H]1CCCN1C(=O)[C@H](CCCNC(=N)N)NC(=O)[C@@H]1CCCN1C(=O)[C@H](CCCNC(=N)N)NC(=O)[C@@H]1CCCN1C(=O)[C@H](CCCNC(=N)N)NC(=O)[C@@H]1CCCN1C(=O)[C@H](CCCNC(=N)N)NC(=O)[C@@H]1CCCN1C(=O)[C@H](CCCNC(=N)N)NC(=O)[C@@H]1CCCN1C(=O)[C@H](CCCNC(=N)N)NC(=O)[C@@H]1CCCN1C(=O)[C@H](CCCNC(=N)N)NC(=O)[C@@H]1CCCN1C(=O)[C@H](CCCNC(=N)N)NC(=O)[C@@H]1CCCN1C(=O)[C@H](CCCNC(=N)N)NC(=O)[C@@H]1CCCN1C(=O)[C@H](CCCNC(=N)N)NC(=O)[C@@H]1CCCN1C(=O)[C@H](CCCNC(=N)N)NC(=O)[C@@H]1CCCN1)C(=O)O` [PR20] (H-PRPRPRPRPRPRPRPRPRPRPRPRPRPRPRPRPRPRPRPR-OH; N-terminus and C-terminus assumed), in assay [1], the “Inhibition of proteosomal degradation” value is “shown to inhibit proteosomal degradation”. Moreover, the “Effect on nuclear import of NLS-BSA” value in assay [2] was “impeded nuclear import of NLS-BSA”. Further, the “Effect on nuclear transport of fluorescent NLS-NES shuttle proteins” value in assay [3] is recorded as “unable to impede nuclear transport”. Further, the “Binding to FG-domain polymers” value in assay [4] was “bind and stabilize Nup54 and 98 FG-domain polymers”.
Take `N=C(N)NCCC[C@H](NC(=O)CNC(=O)[C@H](CCCNC(=N)N)NC(=O)CNC(=O)[C@H](CCCNC(=N)N)NC(=O)CNC(=O)[C@H](CCCNC(=N)N)NC(=O)CNC(=O)[C@H](CCCNC(=N)N)NC(=O)CNC(=O)[C@H](CCCNC(=N)N)NC(=O)CNC(=O)[C@H](CCCNC(=N)N)NC(=O)CNC(=O)[C@H](CCCNC(=N)N)NC(=O)CNC(=O)[C@H](CCCNC(=N)N)NC(=O)CNC(=O)[C@H](CCCNC(=N)N)NC(=O)CNC(=O)[C@H](CCCNC(=N)N)NC(=O)CNC(=O)[C@H](CCCNC(=N)N)NC(=O)CNC(=O)[C@H](CCCNC(=N)N)NC(=O)CNC(=O)[C@H](CCCNC(=N)N)NC(=O)CNC(=O)[C@H](CCCNC(=N)N)NC(=O)CNC(=O)[C@H](CCCNC(=N)N)NC(=O)CNC(=O)[C@H](CCCNC(=N)N)NC(=O)CNC(=O)[C@H](CCCNC(=N)N)NC(=O)CNC(=O)[C@H](CCCNC(=N)N)NC(=O)CNC(=O)[C@H](CCCNC(=N)N)NC(=O)CN)C(=O)O` [GR20]: in assay [3], the “Effect on nuclear transport of fluorescent NLS-NES shuttle proteins” value is reported as “unable to impede nuclear transport”.
For “AF488-PR10: PR10 labeled with Alexa Fluor 488 C5-maleimide (PRPRPRPRPRPRPRPRPRPRKC(Alexa Fluor 488 C5‑maleimide))”, the “Location of AF488-labeled DPR in fractionated transport reactions (confocal)” value in assay [5] was “remained in the supernatant and was present at the nuclear envelope”.
For `OCCCCCCO` [1,6-hexanediol], in assay [6] (25 µM PR10), the “Reversal of mild nuclear import inhibition” value was “neither 1,6-hexanediol nor exogenous importin β could reverse mild nuclear import inhibition”. In addition, in assay [6] (no DPR), the “Effect on Rango import at baseline” value was “caused dose-dependent inhibition at baseline”.
For “AF488-GR10: GR10 labeled with Alexa Fluor 488 C5-maleimide (GRGRGRGRGRGRGRGRGRGRKC(Alexa Fluor 488 C5‑maleimide))”, the “Location of AF488-labeled DPR in fractionated transport reactions (confocal)” value in assay [5] was “fully sedimented into the pellet”.
Regarding `CC(Nc1nc(N2CCCC2)nc2ccccc12)c1ccccc1` (stereo not shown) [importazole, Importazole, reference compound], in assay [7], the “Effect on Rango import in permeabilized neurons” value is recorded as “can be inhibited”.
